From US4999352A, “1-(1-aryl-2-hydroxyethyl)-imidazoles and salts thereof, medicaments containing these compounds, and the use thereof” (Hoechst Aktiengesellschaft, priority 1987, dated 1991)

Tested on: tetrabenazine-induced ptosis
Test: Test for influence on tetrabenazine-induced ptosis in mice
Assay type: in vivo, mice (male, SPF-71, KF:NMRI)
Conditions: Mus musculus, po, 0.5 h, p.o., tetrabenazine 40 mg/kg i.p. 30 minutes after test substance, ptosis scored 30 minutes later, 50% of control ptosis, 95% confidence limit in parentheses
Method: Test for influence on tetrabenazine-induced ptosis
Male mice (SPF-71, KF:NMRI) weighing 18-22 g were allotted at random to treatment groups of 6 animals. The test substances were suspended in 1% strength methylhydroxyethylcellulose (MH)/water and administered orally at 10 ml/kg of body weight. A control group was given the solvent (1% strength MH), and the standard group was given 10 mg/kg p.o. of nomifensine (in 1% strength MH). The tetrabenazine solution used was prepared from methanesulfonate (.congruent.76.8% of base), and an amount corresponding to 40 mg/kg of tetrabenazine base was administered intraperitoneally 30 minutes after the test substances. The ptosis was assessed according to the following scale 30 minutes after administration of tetrabenazine: […]
The ptosis scores were cumulated and the result of the groups related to the maximum score achievable (6×.varies.=100%). By means of linear regression, the ED50 (mg/kg) was determined as the dose at which the degree of ptosis is 50% of the value determined in the control group.

Row | SMILES | ED50 [mg/kg]
1 | C=CCC1(C(O)C(c2cccc(Cl)c2)n2ccnc2)CCCCC1 (centres unmarked) [Example 1, 1-(1-Allyl-1-cyclohexyl)-2-(3-chlorophenyl)-2-(1-imidazolyl)-ethanol] | 3.9
2 | C=CCC(C)(C)C(O)C(c1cccc(Cl)c1)n1ccnc1 (centres unmarked) [Example 2, 1-(3Chlorophenyl)-3,3-dimethyl-1-(1-imidazolyl)-5-hexen-2-ol] | 2
3 | C=CCC(C)(C)C(O)C(c1ccc(-c2ccccc2)cc1)n1ccnc1 (centres unmarked) [Example 13] | 1.3
4 | CCCC(C)(C)C(O)C(c1ccc(-c2ccccc2)cc1)n1ccnc1 (centres unmarked) [Example 26, 1-(4-Diphenyl)-3,3-dimethyl-1-(1-imidazolyl)-2-hexanol] | 1.2
5 | CN1Cc2c(N)cccc2C(c2ccccc2)C1 (centres unmarked) [nomifensine, reference compound] | 1.2
